Reference: patent US20210070748A1, “INHIBITORS OF BRUTONS TYROSINE KINASE” (Pharmacyclics LLC, priority 2015, published 2021)

Tests used:
Assay type in all cases: biochemical
[1] = target: EGFR (Homo sapiens, UniProt P00533); test: Inhibition of a panel of kinases, in vitro HotSpot kinase assay: EGFR; conditions: D-compounds panel data; 1 μM ATP
Experimental: (§1) The degree of inhibition of a panel of kinases is determined using the in vitro HotSpot kinase assay (purified enzymes, ^33P-ATP, an appropriate substrate and 1 μM ATP).

[2] = target: T1, JAK3 (Homo sapiens, UniProt P52333); test: Inhibition of a panel of kinases, in vitro HotSpot kinase assay: JAK3; conditions: D-compounds panel data; 1 μM ATP; read-out: IC50 JAK3
T1 sequence (P52333 1-1124): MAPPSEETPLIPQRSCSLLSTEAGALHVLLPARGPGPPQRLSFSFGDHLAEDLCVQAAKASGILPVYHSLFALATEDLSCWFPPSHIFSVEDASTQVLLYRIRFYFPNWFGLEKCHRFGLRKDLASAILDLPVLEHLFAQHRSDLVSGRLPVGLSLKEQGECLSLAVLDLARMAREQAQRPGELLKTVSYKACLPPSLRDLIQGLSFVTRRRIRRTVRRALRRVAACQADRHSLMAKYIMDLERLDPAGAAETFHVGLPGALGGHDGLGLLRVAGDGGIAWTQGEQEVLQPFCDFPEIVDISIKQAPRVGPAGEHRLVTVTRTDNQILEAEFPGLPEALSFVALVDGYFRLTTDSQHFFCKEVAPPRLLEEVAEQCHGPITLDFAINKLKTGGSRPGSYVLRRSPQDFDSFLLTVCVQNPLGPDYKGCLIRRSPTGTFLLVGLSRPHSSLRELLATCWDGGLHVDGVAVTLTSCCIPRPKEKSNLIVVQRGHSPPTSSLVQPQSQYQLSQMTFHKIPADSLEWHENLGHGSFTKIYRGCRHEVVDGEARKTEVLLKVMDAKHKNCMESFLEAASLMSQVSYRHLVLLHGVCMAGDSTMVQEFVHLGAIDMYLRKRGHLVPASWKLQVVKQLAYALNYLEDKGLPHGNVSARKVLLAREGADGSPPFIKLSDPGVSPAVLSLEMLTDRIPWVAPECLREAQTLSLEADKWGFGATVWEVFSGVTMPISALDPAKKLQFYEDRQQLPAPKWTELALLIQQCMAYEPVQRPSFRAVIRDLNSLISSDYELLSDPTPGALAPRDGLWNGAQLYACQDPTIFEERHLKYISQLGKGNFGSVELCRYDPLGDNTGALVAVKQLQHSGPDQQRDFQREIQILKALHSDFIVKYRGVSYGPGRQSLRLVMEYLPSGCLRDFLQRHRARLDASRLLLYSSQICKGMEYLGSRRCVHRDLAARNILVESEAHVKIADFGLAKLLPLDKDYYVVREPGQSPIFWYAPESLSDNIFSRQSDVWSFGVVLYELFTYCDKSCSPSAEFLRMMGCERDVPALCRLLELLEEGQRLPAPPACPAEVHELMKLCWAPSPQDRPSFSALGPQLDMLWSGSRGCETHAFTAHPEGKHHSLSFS

[3] = target: SRC (Homo sapiens, UniProt P12931); test: Inhibition of a panel of kinases, in vitro HotSpot kinase assay: SRC; conditions: D-compounds panel data; 1 μM ATP
Experimental: as §1

Sequence of EGFR (P00533 25-1210): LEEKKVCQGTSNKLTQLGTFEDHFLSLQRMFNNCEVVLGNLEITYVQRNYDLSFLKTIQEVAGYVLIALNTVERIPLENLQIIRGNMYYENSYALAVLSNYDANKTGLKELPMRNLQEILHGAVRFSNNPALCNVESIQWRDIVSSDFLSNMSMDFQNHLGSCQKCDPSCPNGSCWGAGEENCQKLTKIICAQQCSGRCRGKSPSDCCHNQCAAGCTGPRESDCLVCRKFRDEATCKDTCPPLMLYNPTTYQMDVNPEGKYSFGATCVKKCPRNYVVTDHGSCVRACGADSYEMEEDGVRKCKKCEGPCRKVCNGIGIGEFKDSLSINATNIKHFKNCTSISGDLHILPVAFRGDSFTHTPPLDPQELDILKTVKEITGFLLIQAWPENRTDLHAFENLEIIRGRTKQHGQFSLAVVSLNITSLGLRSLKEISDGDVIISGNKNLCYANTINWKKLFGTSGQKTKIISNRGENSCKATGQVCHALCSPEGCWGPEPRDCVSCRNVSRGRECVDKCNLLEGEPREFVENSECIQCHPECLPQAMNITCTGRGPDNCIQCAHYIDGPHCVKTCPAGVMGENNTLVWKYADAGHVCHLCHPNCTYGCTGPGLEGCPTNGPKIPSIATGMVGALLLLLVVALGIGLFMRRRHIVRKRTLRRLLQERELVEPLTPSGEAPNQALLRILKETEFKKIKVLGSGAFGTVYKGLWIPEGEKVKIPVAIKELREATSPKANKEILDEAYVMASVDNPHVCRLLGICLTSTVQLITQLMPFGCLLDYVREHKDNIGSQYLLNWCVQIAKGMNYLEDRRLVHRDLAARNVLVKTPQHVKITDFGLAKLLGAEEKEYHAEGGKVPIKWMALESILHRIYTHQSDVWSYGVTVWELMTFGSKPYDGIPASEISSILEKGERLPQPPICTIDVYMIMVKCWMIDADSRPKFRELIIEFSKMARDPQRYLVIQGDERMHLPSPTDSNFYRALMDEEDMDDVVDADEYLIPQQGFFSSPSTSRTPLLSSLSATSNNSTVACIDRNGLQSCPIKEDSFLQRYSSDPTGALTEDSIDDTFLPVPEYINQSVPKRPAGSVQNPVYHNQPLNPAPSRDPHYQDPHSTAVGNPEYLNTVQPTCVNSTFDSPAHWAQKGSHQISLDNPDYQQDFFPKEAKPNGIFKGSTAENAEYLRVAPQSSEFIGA
Sequence of SRC (P12931 whole entry): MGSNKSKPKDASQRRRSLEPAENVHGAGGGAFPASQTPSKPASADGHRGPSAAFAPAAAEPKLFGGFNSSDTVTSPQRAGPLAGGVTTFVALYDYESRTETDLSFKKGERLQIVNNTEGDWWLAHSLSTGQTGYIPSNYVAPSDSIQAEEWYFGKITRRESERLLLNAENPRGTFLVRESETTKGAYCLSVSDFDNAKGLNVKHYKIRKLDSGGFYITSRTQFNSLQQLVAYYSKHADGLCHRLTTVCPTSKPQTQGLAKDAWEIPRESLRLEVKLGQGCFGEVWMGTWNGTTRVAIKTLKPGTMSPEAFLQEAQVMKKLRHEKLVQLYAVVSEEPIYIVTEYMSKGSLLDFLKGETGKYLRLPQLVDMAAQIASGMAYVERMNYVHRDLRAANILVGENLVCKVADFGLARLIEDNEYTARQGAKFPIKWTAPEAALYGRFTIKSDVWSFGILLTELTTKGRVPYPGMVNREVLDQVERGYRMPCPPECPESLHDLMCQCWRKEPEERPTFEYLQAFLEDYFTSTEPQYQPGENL

IC50 [1]	IC50 [2]	IC50 [3]	SMILES
1000 to 10000 nM	> 10000 nM	100 to 1000 nM	C[C@@H]1[C@H](NC(=O)c2ccc(S(F)(F)(F)(F)F)cc2)CCCN1c1cnc(C(N)=O)c(Nc2cnn(C)c2)n1 [Example D-230, 3-[(1-methyl-1H-pyrazol-4-yl)amino]-5-[(2R,3R)-2-methyl-3-[4-(pentafluoro-λ^6-sulfanyl)benzamido]piperidin-1-yl]pyrazine-2-carboxamide]
1000 to 10000 nM	1000 to 10000 nM	10 to 100 nM	Cc1ccc(C(=O)N[C@@H]2CCCN(c3cnc(C(N)=O)c(Nc4cnn(C)c4)n3)[C@@H]2C)cc1 [Example D-232, 3-[(1-methyl-1H-pyrazol-4-yl)amino]-5-[(2R,3R)-2-methyl-3-(4-methylbenzamido)piperidin-1-yl]pyrazine-2-carboxamide]
100 to 1000 nM	100 to 1000 nM	10 to 100 nM	C[C@@H]1[C@H](NC(=O)c2ccc(C3(O)CC3)cc2)CCCN1c1cnc(C(N)=O)c(Nc2cnn(C)c2)n1 [Example D-235, 5-[(2R,3R)-3-[4-(1-hydroxycyclopropyl)benzamido]-2-methylpiperidin-1-yl]-3-[(1-methyl-1H-pyrazol-4-yl)amino]pyrazine-2-carboxamide]
1000 to 10000 nM	100 to 1000 nM	10 to 100 nM	C[C@@H]1[C@H](NC(=O)c2ccc3scnc3c2)CCCN1c1cnc(C(N)=O)c(Nc2cnn(C)c2)n1 [Example D-237, N-[(2R,3R)-1-{5-carbamoyl-6-[(1-methyl-1H-pyrazol-4-yl)amino]pyrazin-2-yl}-2-methylpiperidin-3-yl]-1,3-benzothiazole-5-carboxamide]

Continued, compound first:

SMILES	IC50 [1]	IC50 [2]	IC50 [3]
COc1cc(C(=O)N[C@@H]2CCCN(c3cnc(C(N)=O)c(Nc4cnn(C)c4)n3)[C@@H]2C)ccc1C1CC1 [Example D-231, 5-[(2R,3R)-3-(4-cyclopropyl-3-methoxybenzamido)-2-methylpiperidin-1-yl]-3-[(1-methyl-1H-pyrazol-4-yl)amino]pyrazine-2-carboxamide]	1000 to 10000 nM	> 10000 nM	10 to 100 nM
C[C@@H]1[C@H](NC(=O)c2ccc(SC(F)(F)F)cc2)CCCN1c1cnc(C(N)=O)c(Nc2ccc(N3CCN(C)CC3)cc2)n1 [Example D-233, 5-[(2R,3R)-2-methyl-3-{4-[(trifluoromethyl)sulfanyl]benzamido}piperidin-1-yl]-3-{[4-(4-methylpiperazin-1-yl)phenyl]amino}pyrazine-2-carboxamide]	100 to 1000 nM	1000 to 10000 nM	10 to 100 nM
C[C@@H]1[C@H](NC(=O)c2ccc3c(cnn3C)c2)CCCN1c1cnc(C(N)=O)c(Nc2ccc(N3CCN(C)CC3)cc2)n1 [Example D-234, N-[(2R,3R)-1-(5-carbamoyl-6-{[4-(4-methylpiperazin-1-yl)phenyl]amino}pyrazin-2-yl)-2-methylpiperidin-3-yl]-1-methyl-1H-indazole-5-carboxamide]	100 to 1000 nM	100 to 1000 nM	10 to 100 nM
C[C@H]1CC[C@@H](NC(=O)c2ccc(C(C)(C)O)cc2)CN1c1cnc(C(N)=O)c(Nc2cnn(C)c2)n1 [Example D-236, 5-[(2S,5R)-5-[4-(2-hydroxypropan-2-yl)benzamido]-2-methylpiperidin-1-yl]-3-[(1-methyl-1H-pyrazol-4-yl)amino]pyrazine-2-carboxamide]	100 to 1000 nM	100 to 1000 nM	10 to 100 nM
Cc1nc2cc(C(=O)N[C@@H]3CCCN(c4cnc(C(N)=O)c(Nc5cnn(C)c5)n4)[C@@H]3C)ccc2o1 [Example D-238, N-[(2R,3R)-1-{5-carbamoyl-6-[(1-methyl-1H-pyrazol-4-yl)amino]pyrazin-2-yl}-2-methylpiperidin-3-yl]-2-methyl-1,3-benzoxazole-5-carboxamide]	100 to 1000 nM	100 to 1000 nM	10 to 100 nM
C[C@@H]1[C@H](NC(=O)c2cnc(C(C)(C)C)s2)CCCN1c1cnc(C(N)=O)c(Nc2cnn(C)c2)n1 [Example D-239, 5-[(2R,3R)-3-(2-tert-butyl-1,3-thiazole-5-amido)-2-methylpiperidin-1-yl]-3-[(1-methyl-1H-pyrazol-4-yl)amino]pyrazine-2-carboxamide]	100 to 1000 nM	100 to 1000 nM	10 to 100 nM
